According to patent US11065263B2, “Sterol composition in pumpkin seed oil and application thereof, and drug for treating benign prostatic hyperplasia” (Hunan Zhongkewentai Bio-tech co.Ltd, priority 2019, dated 2021):

Columns and labels:
Format in all cases: in vivo, SD (Sprague Dawley) rats
[1] = test system: 5α-reductase; assay: RT-qPCR genetic expression of 5α-reductase in the prostate; conditions: finasteride group, 0.28 mg/kg, compared with the model group
[2] = test system: SRC-1 (steroid receptor coactivator-1); assay: immunohistochemical measurement of SRC-1 in the prostate; conditions: finasteride group, 0.28 mg/kg
Procedure: S3023: according to a dose of 4 mg/kg, which is calculated through equivalent conversion according to the body surface areas of humans and animals, hypodermically injecting the testosterone propionate injection to each SD rat for consecutive 30 days, and injecting normal saline of same volume to the SD rats of normal group, so as to finish modeling.
The high-dose group adopts an administration dose of 10 mg/kg (which is calculated through equivalent conversion according to the body surface areas of humans and animals; when the weight of the SD rat is 1 kg, 10 mg of the sterol composition in the pumpkin seed oil prepared through the example 1 is administrated), the medium-dose group adopts an administration dose of 3.3 mg/kg, and the low-dose group adopts an administration dose of 1.1 mg/kg, which respectively correspond to 20 times, 6.66 times, and 2.22 times the clinical dose. Before drug administration, suspensions of 4.5 mg/mL, 1.5 mg/mL, and 0.5 mg/mL are respectively prepared with the corn oil. […] The drug is administrated by gavage once a day; after administrating for consecutive 6 days, administration is stopped for one day; and an administration cycle is 4 week. […]

[3] = test system: prostate tissue of benign prostatic hyperplasia rats; assay: prostate tissue appearance and HE stain morphology in benign prostatic hyperplasia rats; conditions: finasteride group, 0.28 mg/kg
Excerpt: The drug is administrated by gavage once a day; after administrating for consecutive 6 days, administration is stopped for one day; and an administration cycle is 4 week. killing the SD rats, separating the prostate of the SD rats through the tweezers, and weighing the prostate; […]

[4] = rat weight after 4 week administration in benign prostatic hyperplasia rats; conditions: finasteride group, 0.28 mg/kg by gavage once a day
[5] = test system: benign prostatic hyperplasia rats treated with testosterone propionate; assay: prostate weight and prostate index in benign prostatic hyperplasia rats treated with testosterone propionate; conditions: finasteride group
Procedure: : modeling, particularly comprising steps of: […]: respectively weighing six groups of SD rats; […] The drug is administrated by gavage once a day; after administrating for consecutive 6 days, administration is stopped for one day; and an administration cycle is 4 week. Respectively weighing SD rats of six groups two hours after last administration and after fasting for 12 hours; killing the SD rats, separating the prostate of the SD rats through the tweezers, and weighing the prostate;

Rat weight [4]: 439.2 ± 32.7 g
SMILES: CC(C)(C)NC(=O)[C@H]1CC[C@H]2[C@@H]3CC[C@H]4NC(=O)C=C[C@]4(C)[C@H]3CC[C@]12C [Finasteride, finasteride]
genetic expression quantity of 5α-reductase, RT-qPCR (FIG. 5) [1]: obviously decreased | genetic expression of SRC-1, immunohistochemical method (FIG. 4) [2]: obviously decreased | HE stain morphology of the prostate tissue (FIG. 3) [3]: part of the multiple-layer epithelial cells in the prostate tissue recover to the single-layer epithelial cells | volume of the prostate tissue compared with the model group (FIG. 2) [3]: obviously decreased | decrease of prostate weight compared with the model group ([5]; 0.28 mg/kg): 19.1% | Prostate weight ([5]; 0.28 mg/kg by gavage once a day, 4 week): 868.4 ± 188.3 mg
